Measured values reported in patent US8772287B2, “Pyrimidinyl and 1,3,5-triazinyl benzimidazole sulfonamides and their use in cancer therapy” (VetDC, Inc., priority 2009, dated 2014).
Structures can show the parent of a compound that is named as a salt. Where two headings read alike, the source gives them in different places. Each block holds one compound with its values, some of them ahead of it.

Key:
[1] = tested on: NZOV9; experiment: Cellular growth inhibition, NZOV9 (3H-thymidine incorporation); format: cell-based, human
Method: (§1) The compounds were evaluated against two early passage human cell lines NZB5 and NZOV9 (Marshall et al., Oncol. Res. 2004, 14, 297). The cells were grown in ITS medium (α-modified minimal essential medium supplemented insulin, transferrin, selenite, and 5% fetal bovine serum) and grown on 96-well tissue culture plates under an atmosphere of 5% O2, 5% CO2, and 90% N2. Individual wells contained 500-1,000 cells (depending on the growth rate) in a volume of 150 μL. Compounds were added at 10-fold concentration steps to a maximum of 20 μM and plates were incubated for five days, with ^3H-thymidine being added over the last 6 hrs. Cells were harvested and incorporated radioactivity measured. Duplicate samples were analyzed for each compound dose with multiple control samples.

[2] = tested on: NZB5; experiment: Cellular growth inhibition, NZB5 (3H-thymidine incorporation); format: cell-based, human
Method: as §1

[3] = Homo sapiens, NZOV9, read-out: Cell IC50 NZOV9
[4] = Homo sapiens, NZB5, read-out: Cell IC50 NZB5
[5] = Homo sapiens, NZOV9, five days incubation, 3H-thymidine over the last 6 hrs, read-out: Cell IC50 NZOV9
[6] = Homo sapiens, NZB5, five days incubation, 3H-thymidine over the last 6 hrs, read-out: Cell IC50 NZB5
[7] = read-out: Cell IC50 NZOV9, five days incubation, 3H-thymidine over the last 6 hrs
[8] = read-out: Cell IC50 NZB5, five days incubation, 3H-thymidine over the last 6 hrs

Compound: COc1cccc2c1nc(C(F)F)n2-c1nc(N2CCOCC2)nc(N2CCN(S(C)(=O)=O)CC2)n1 [Example 2, 2-(difluoromethyl)-4-methoxy-1-[4-[4-(methylsulfonyl)-1-piperazinyl]-6-(4-morpholinyl)-1,3,5-triazin-2-yl]-1H-benzimidazole]
- IC50 [1, 3]: 100 to 1000 nM
- IC50 [2, 4]: 100 to 1000 nM
- melting point: 311 to 314 °C

Compound: COc1cccc2c1nc(C(F)F)n2-c1nc(OC2CCN(S(=O)(=O)CCN3CCN(S(C)(=O)=O)CC3)CC2)nc(N2CCOCC2)n1 [Example 52, 2-(difluoromethyl)-4-methoxy-1-[4-{[1-({2-[4-(methylsulfonyl)-1-piperazinyl]ethyl}sulfonyl)-4-piperidinyl]oxy}-6-(4-morpholinyl)-1,3,5-triazin-2-yl]-1H-benzimidazole]
- IC50 [1, 5]: > 1000 nM
- IC50 [2, 6]: > 1000 nM
- melting point: 251 to 254 °C

Compound: COc1cccc2c1nc(C(F)F)n2-c1nc(N[C@H]2CC[C@H](NS(C)(=O)=O)CC2)nc(N2CCOCC2)n1 [Example 78, trans-N-(4-{[4-[2-(difluoromethyl)-4-methoxy-1H-benzimidazol-1-yl]-6-(4-morpholinyl)-1,3,5-triazin-2-yl]amino}cyclohexyl)methanesulfonamide]
- IC50 [1, 3]: < 100 nM
- IC50 [2, 4]: 100 to 1000 nM
- melting point: 269 to 272 °C

Compound: COc1cccc2c1nc(C(F)F)n2-c1nc(N[C@@H]2CCCN(S(C)(=O)=O)C2)nc(N2CCOCC2)n1 [Example 40, 4-[2-(difluoromethyl)-4-methoxy-1H-benzimidazol-1-yl]-N-[(3R)-1-(methylsulfonyl)piperidinyl]-6-(4-morpholinyl)-1,3,5-triazin-2-amine]
- IC50 [1, 3]: < 100 nM
- IC50 [2, 4]: 100 to 1000 nM
- melting point: 241 to 243 °C

Compound: COc1cccc2c1nc(C(F)F)n2-c1nc(N[C@H]2CC[C@@H](NS(C)(=O)=O)CC2)nc(N2CCOCC2)n1 [Example 79, cis-N-(4-{[4-[2-(difluoromethyl)-4-methoxy-1H-benzimidazol-1-yl]-6-(4-morpholinyl)-1,3,5-triazin-2-yl]amino}cyclohexyl)methanesulfonamide]
- IC50 [1, 3]: < 100 nM
- IC50 [2, 4]: 100 to 1000 nM

Compound: COc1cccc2c1nc(C(F)F)n2-c1nc(N2CCOCC2)nc(N(C)[C@H]2CCN(S(C)(=O)=O)C2)n1 [Example 35, 4-[2-(difluoromethyl)-4-methoxy-1H-benzimidazol-1-yl]-N-methyl-N-[(3S)-1-(methylsulfonyl)pyrrolidinyl]-6-(4-morpholinyl)-1,3,5-triazin-2-amine]
- IC50 [1, 7]: < 100 nM
- IC50 [2, 8]: < 100 nM

Compound: COc1cccc2c1nc(C(F)F)n2-c1nc(N[C@H]2CCN(S(C)(=O)=O)C2)nc(N2CCOCC2)n1 [Example 34, 4-[2-(difluoromethyl)-4-methoxy-1H-benzimidazol-1-yl]-N-[(3S)-1-(methylsulfonyl)pyrrolidinyl]-6-(4-morpholinyl)-1,3,5-triazin-2-amine]
- IC50 [1, 7]: < 100 nM
- IC50 [2, 8]: 100 to 1000 nM

Compound: COc1cccc2c1nc(C(F)F)n2-c1nc(OC2CCN(S(=O)(=O)CCN3CCOCC3)CC2)nc(N2CCOCC2)n1 [Example 51, 2-(difluoromethyl)-4-methoxy-1-{4-(4-morpholinyl)-6-[(1-{[2-(4-morpholinyl)ethyl]sulfonyl}-4-piperidinyl)oxy]-1,3,5-triazin-2-yl}-1H-benzimidazole]
- IC50 [1, 5]: 100 to 1000 nM
- IC50 [2, 6]: > 1000 nM

Compound: COc1cccc2c1nc(C(F)F)n2-c1nc(N2CCOCC2)c2cnn(C3CCN(S(=O)(=O)CCN(C)C)CC3)c2n1 [Example 99, N-[2-({4-[6-[2-(difluoromethyl)-4-methoxy-1H-benzimidazol-1-yl]-4-(4-morpholinyl)-1H-pyrazolo[3,4-d]pyrimidin-1-yl]-1-piperidinyl}sulfonyl)ethyl]-N,N-dimethylamine]
- IC50 [1, 5]: < 100 nM
- IC50 [2, 6]: < 100 nM

Compound: COc1cccc2c1nc(C(F)F)n2-c1nc(N2CCOCC2)nc(N2CCC(NS(C)(=O)=O)C2)n1 (stereo in doubt) [Example 36, N-{(3R)-1-[4-[2-(difluoromethyl)-4-methoxy-1H-benzimidazol-1-yl]-6-(4-morpholinyl)-1,3,5-triazin-2-yl]pyrrolidinyl}methanesulfonamide]
- IC50 [1, 3]: < 100 nM
- IC50 [2, 4]: 100 to 1000 nM
- melting point: 290 to 292 °C

Compound: COc1cccc2c1nc(C(F)F)n2-c1nc(N2CCOCC2)nc(N(C)C2CCCN(S(C)(=O)=O)C2)n1 (centres unmarked)
- melting point: 201 to 203 °C

Compound: COc1cccc2c1nc(C(F)F)n2-c1nc(OC2CCN(S(=O)(=O)CCN3CCOCC3)CC2)nc(N2CCOCC2)n1 (as salt: hydrochloride) [Example 51, 2-(difluoromethyl)-4-methoxy-1-{4-(4-morpholinyl)-6-[(1-{[2-(4-morpholinyl)ethyl]sulfonyl}-4-piperidinyl)oxy]-1,3,5-triazin-2-yl}-1H-benzimidazole]
- melting point: 255 to 259 °C

Compound: COc1cc(N)cc2c1nc(C(F)F)n2-c1nc(N2CCOCC2)nc(N2CCN(S(=O)(=O)CCN(C)C)CC2)n1 [Example 84, N-[2-({4-[4-[6-amino-2-(difluoromethyl)-4-methoxy-1H-benzimidazol-1-yl]-6-(4-morpholinyl)-1,3,5-triazin-2-yl]-1-piperazinyl}sulfonyl)ethyl]-N,N-dimethylamine]
- IC50 [1, 5]: > 1000 nM
- IC50 [2, 6]: < 100 nM

Compound: COc1cccc2c1nc(C(F)F)n2-c1nc(N2CCOCC2)nc(N(CCCN(C)C)C2CCN(S(=O)(=O)CCl)CC2)n1 (as salt: hydrochloride) [Example 59, N^1-{1-[(chloromethyl)sulfonyl]-4-piperidinyl}-N^1-[4-[2-(difluoromethyl)-4-methoxy-1H-benzimidazol-1-yl]-6-(4-morpholinyl)-1,3,5-triazin-2-yl]-N^3,N^3-dimethyl-1,3-propanediamine]
- melting point: 222 to 225 °C

The next lines start with the values.

- melting point: 218 to 220 °C
Compound: COc1cccc2c1nc(C(F)F)n2-c1nc(-c2ccc(N(C)S(=O)(=O)CCN(C)C)cc2)nc(N2CCOCC2)n1 (as salt: methanesulfonate) [Example 75, N-{4-[4-[2-(difluoromethyl)-4-methoxy-1H-benzimidazol-1-yl]-6-(4-morpholinyl)-1,3,5-triazin-2-yl]phenyl}-2-(dimethylamino)-N-methylethanesulfonamide]

- melting point: 218 to 220 °C
Compound: COc1cccc2c1nc(C(F)F)n2-c1nc(-c2ccc(NS(=O)(=O)CCN(C)C)cc2)nc(N2CCOCC2)n1 (as salt: methanesulfonate) [Example 74, N-{4-[4-[2-(difluoromethyl)-4-methoxy-1H-benzimidazol-1-yl]-6-(4-morpholinyl)-1,3,5-triazin-2-yl]phenyl}-2-(dimethylamino)ethanesulfonamide]

- melting point: 289 to 292 °C
Compound: COc1cccc2c1nc(C(F)F)n2-c1nc(-c2ccc(S(=O)(=O)N3CCN(C)CC3)cc2)nc(N2CCOCC2)n1 (as salt: methanesulfonate) [Example 95, 2-(difluoromethyl)-4-methoxy-1-[4-{4-[(4-methyl-1-piperazinyl)sulfonyl]phenyl}-6-(4-morpholinyl)-1,3,5-triazin-2-yl]-1H-benzimidazole]

- melting point: 166 to 168 °C
Compound: COc1cccc2c1nc(C(F)F)n2-c1nc(N2CCOCC2)nc(N2CCCC(NS(=O)(=O)CCl)C2)n1 (stereo in doubt) [Example 62, chloro-N-{(3S)-1-[4-[2-(difluoromethyl)-4-methoxy-1H-benzimidazol-1-yl]-6-(4-morpholinyl)-1,3,5-triazin-2-yl]-3-piperidinyl}methanesulfonamide]

- melting point: 191 to 193 °C
Compound: COc1cccc2c1nc(C(F)F)n2-c1nc(N2CCOCC2)c2cnn(C3CCN(S(=O)(=O)CCN(C)C)CC3)c2n1 (as salt: methanesulfonate) [Example 99, N-[2-({4-[6-[2-(difluoromethyl)-4-methoxy-1H-benzimidazol-1-yl]-4-(4-morpholinyl)-1H-pyrazolo[3,4-d]pyrimidin-1-yl]-1-piperidinyl}sulfonyl)ethyl]-N,N-dimethylamine]

- melting point: 238 °C (dec.)
Compound: COc1cc(N)cc2c1nc(C(F)F)n2-c1nc(N2CCOCC2)nc(N2CCN(S(=O)(=O)CCN(C)C)CC2)n1 (as salt: methanesulfonate) [Example 84, N-[2-({4-[4-[6-amino-2-(difluoromethyl)-4-methoxy-1H-benzimidazol-1-yl]-6-(4-morpholinyl)-1,3,5-triazin-2-yl]-1-piperazinyl}sulfonyl)ethyl]-N,N-dimethylamine]

- melting point: 244 to 246 °C
Compound: CN(C)CCS(=O)(=O)N1CCN(c2nc(N3CCOCC3)nc(-n3c(C(F)F)nc4ccccc43)n2)CC1 (as salt: hydrochloride) [Example 83, N-[2-({4-[4-[2-(difluoromethyl)-1H-benzimidazol-1-yl]-6-(4-morpholinyl)-1,3,5-triazin-2-yl]-1-piperazinyl}sulfonyl)ethyl]-N,N-dimethylamine]

- melting point: 260 to 263 °C
Compound: COc1cccc2c1nc(C(F)F)n2-c1nc(N2CCOCC2)nc(N2CCC(N(CCCN(C)C)S(=O)(=O)CCl)CC2)n1 (as salt: hydrochloride) [Example 60, chloro-N-{1-[4-[2-(difluoromethyl)-4-methoxy-1H-benzimidazol-1-yl]-6-(4-morpholinyl)-1,3,5-triazin-2-yl]-4-piperidinyl}-N-[3-(dimethylamino)propyl]methanesulfonamide]
